Measurements published in patent US20060058286A1, “Methods of treating HIV infection” (priority 2004, published 2006).

Assays:
HIV-1 NL4-3 [1] = experiment: Two-drug combination study with Compound 1 (combination indices); type: cell-based; conditions: for Combination Indices at 50% HIV Inhibition (Confidence Interval) / Combination Indices at 75% HIV Inhibition (Confidence Interval) / Combination Indices at 90% HIV Inhibition (Confidence Interval): 95% CI in parentheses; for Overall Result: overall antiviral effect of the two-drug combination with Compound 1, all ratios and effective levels
Method: (§1) Virus and cell lines. The T-cell line, MT-2 was obtained through the AIDS Research and Reference Reagent Program, NIAID and was contributed by Dr. D. Richman. The cell line was cultured in RPMI 1640 medium supplemented with 10% fetal bovine serum, 2 mM L-glutamine and sub-cultured twice a week. The NL4-3 strain of HIV-1 was obtained from the AIDS Research and Reference Reagent Program. Both virus stocks were amplified and titered in MT-2 cells using a virus infectivity assay.
(§2) Drug Susceptibility and Cytotoxicity Assays. For drug susceptibility assays, MT-2 cells were infected with HIV-1 NL4-3 at an MOI of 0.001, and seeded into 96-well microtiter plates (2.5×10^5 cells/ml) containing serial dilutions of test compounds. […] Each drug ratio consisted of an array of 3-fold serial dilutions, and was performed in quadruplicate. The plates were incubated at 37° C./5% CO2. The MT-2 cells infected with HIV-1 NL4-3 were incubated for 5 days. On day-five post-infection, 20 μl from each well was harvested and quantitated by a reverse transcriptase (RT) assay or an MTS assay. Cytotoxicity assays were performed using uninfected cells, exposed to the same drug combinations, and incubated for five days. Cell viability was determined by an XTT assay. The CC50 values were calculated by using the exponential form of the median effect equation as mentioned below for calculation of EC50.
Analysis of Drug Combination Effects. For determination of CI values, drugs were diluted in a fixed ratio and multiple ratios were analyzed. The drug serial dilutions spanned a range of concentrations near the EC50 value of each compound, so that equivalent antiviral activities could be compared. Concentration-response curves were estimated for each individual drug and every combination using the median-effect equation. The equation was fit using a nonlinear regression routine (Proc Nlin) in PC SAS version 8.01 (SAS Institute Inc., SAS Version 8.01, Cary, N.C.: SAS Institute Inc., 1990).
(§3) In this equation, Fa stands for “fraction affected,” and represents the fraction of the viral load that has been inactivated.
To assess antiviral effects of different drug combination treatments, combination indices (CIs) were calculated according to Chou and Rideout. The combination index was computed as CI=[D]1/[Dm]1+[D]2/[Dm]2
In this equation [Dm]1 and [Dm]2 are the concentrations of drugs that would individually produce a specific level of effect, while [D]1 and [D]2 are the concentrations of drugs in combination that would produce the same level of effect.
Theoretically, additivity is implied if the CI is equal to one, synergy if the CI is less than one, and antagonism if the CI is greater than one. […] At best, we can construct a range that contains the likely values for the CI, given the noise in the data. In this report, these ranges are reported in parentheses next to each point estimate of the CI. […] If the range fell entirely above 1.0, we would infer antagonistic behavior. If the range were to include 1.0, we would infer additivity.

HIV-1 NL4-3 [2] = experiment: microbe, parasite or virus in culture
Method: as §1, §2, §3
In carrying out the combination experiments below, the EC50 for Compound 1 and each comparator compound was determined during the course of each study, and used in the subsequent data analysis.

[3] = combination with Compound 1, EC50 ratio 1:1 (Compound 1:comparator)
[4] = combination with Compound 1, EC50 ratio 1:2.5 (Compound 1:comparator)
[5] = combination with Compound 1, EC50 ratio 2.5:1 (Compound 1:comparator)
[6] = Human immunodeficiency virus 1, NL43, MT2, 120 h

| Compound | combination effect at the 50% effective level (HIV-1 NL4-3 [1]; combination with Compound 1) | combination effect at the 75% and 90% effective levels (HIV-1 NL4-3 [1]; combination with Compound 1) | Combination Indices at 50% HIV Inhibition (Confidence Interval) (HIV-1 NL4-3 [1]; [3]) | Combination Indices at 75% HIV Inhibition (Confidence Interval) (HIV-1 NL4-3 [1]; [3]) | Combination Indices at 90% HIV Inhibition (Confidence Interval) (HIV-1 NL4-3 [1]; [3]) | Combination Indices at 50% HIV Inhibition (Confidence Interval) (HIV-1 NL4-3 [1]; [4]) | Combination Indices at 75% HIV Inhibition (Confidence Interval) (HIV-1 NL4-3 [1]; [4]) | Combination Indices at 90% HIV Inhibition (Confidence Interval) (HIV-1 NL4-3 [1]; [4]) | Combination Indices at 50% HIV Inhibition (Confidence Interval) (HIV-1 NL4-3 [1]; [5]) | Combination Indices at 75% HIV Inhibition (Confidence Interval) (HIV-1 NL4-3 [1]; [5]) | Combination Indices at 90% HIV Inhibition (Confidence Interval) (HIV-1 NL4-3 [1]; [5]) | Overall Result (HIV-1 NL4-3 [1]) | Overall Result (HIV-1 NL4-3 [1]; listed as stavudine) | EC50 (HIV-1 NL4-3 [2]; [6]) [nM] | EC50 (HIV-1 NL4-3 [2]; MT-2 cells infected with HIV-1 NL4-3, MOI 0.001, 5 days, single drug) [nM] | Overall Result (HIV-1 NL4-3 [1]; listed as amprenavir) | Overall Result (HIV-1 NL4-3 [1]; listed as delavirdine) | Overall Result (HIV-1 NL4-3 [1]; listed as emtricitibine) | Overall Result (HIV-1 NL4-3 [1]; listed as zalcitabine) | Overall Result (HIV-1 NL4-3 [1]; listed as lopinavir) |
| --- | --- | --- | --- | --- | --- | --- | --- | --- | --- | --- | --- | --- | --- | --- | --- | --- | --- | --- | --- | --- |
| Cc1cn([C@H]2C=C[C@@H](CO)O2)c(=O)[nH]c1=O [Stavudine, stavudine] | additivity | synergy | 0.63 (0.42, 0.85) | 0.51 (0.29, 0.74) | 0.43 (0.10, 0.75) | 1.32 (0.94, 1.69) | 0.68 (0.41, 0.94) | 0.36 (0.12, 0.59) | 1.20 (0.88, 1.51) | 0.71 (0.45, 0.96) | 0.43 (0.17, 0.68) | Additive- | additive-synergistic | 55 | – | – | – | – | – | – |
| Nc1ccn([C@@H]2CS[C@H](CO)O2)c(=O)n1 [Lamivudine, lamivudine] | – | – | 0.69 (0.58, 0.81) | 0.49 (0.38, 0.61) | 0.37 (0.25, 0.50) | 0.58 (0.52, 0.65) | 0.60 (0.51, 0.69) | 0.64 (0.49, 0.80) | 0.93 (0.65, 1.20) | 0.78 (0.46, 1.10) | 0.70 (0.24, 1.16) | – | – | 190 | – | – | – | – | – | – |
| C[C@H](Cn1cnc2c(N)ncnc21)OCP(=O)(O)O [Tenofovir, tenofovir] | – | – | 1.30 (1.00, 1.61) | 1.02 (0.69, 1.35) | 0.80 (0.39, 1.21) | 0.93 (0.63, 1.23) | 0.99 (0.54, 1.43) | 1.06 (0.31, 1.80) | 1.03 (0.65, 1.40) | 0.84 (0.42, 1.27) | 0.70 (0.14, 1.25) | Additive | – | – | 3 | – | – | – | – | – |
| CC(C)CN(C[C@@H](O)[C@H](Cc1ccccc1)NC(=O)O[C@H]1CCOC1)S(=O)(=O)c1ccc(N)cc1 [Amprenavir, amprenavir] | – | – | 0.37 (0.24, 0.49) | 0.53 (0.28, 0.78) | 0.95 (0.24, 1.67) | 0.37 (0.27, 0.48) | 0.56 (0.33, 0.78) | 1.05 (0.38, 1.71) | 1.17 (0.91, 1.43) | 0.87 (0.60, 1.13) | 0.74 (0.38, 1.10) | Additive- | – | 42 | – | additive to synergistic | – | – | – | – |
| CC(C)Nc1cccnc1N1CCN(C(=O)c2cc3cc(NS(C)(=O)=O)ccc3[nH]2)CC1 [Delavirdine, delavirdine] | – | – | 0.64 (0.50, 0.78) | 0.59 (0.41, 0.78) | 0.58 (0.30, 0.85) | 0.56 (0.47, 0.64) | 0.41 (0.32, 0.50) | 0.31 (0.20, 0.41) | 0.52 (0.44, 0.60) | 0.44 (0.34, 0.54) | 0.39 (0.26, 0.53) | Synergistic | – | 50 | – | – | strong synergistic effects | – | – | – |
| Nc1nc(=O)n([C@@H]2CS[C@H](CO)O2)cc1F [Emtricitabine, emtricitabine] | – | – | 0.52 (0.44, 0.59) | 0.40 (0.32, 0.48) | 0.32 (0.22, 0.41) | 0.74 (0.63, 0.84) | 0.64 (0.52, 0.77) | 0.57 (0.39, 0.75) | 0.49 (0.42, 0.56) | 0.34 (0.28, 0.41) | 0.25 (0.17, 0.33) | Synergistic | – | 110 | – | – | – | synergistic | – | – |
| Nc1ccn([C@H]2CC[C@@H](CO)O2)c(=O)n1 [Zalcitabine, zalcitabine] | – | – | 0.79 (0.64, 0.94) | 0.75 (0.55, 0.96) | 0.72 (0.42, 1.02) | 0.83 (0.70, 0.95) | 0.70 (0.56, 0.85) | 0.60 (0.41, 0.80) | 0.85 (0.75, 0.95) | 0.72 (0.61, 0.84) | 0.61 (0.46, 0.77) | Synergistic | – | 120 | – | – | – | – | synergistic | – |
| Cc1cccc(C)c1OCC(=O)N[C@@H](Cc1ccccc1)[C@@H](O)C[C@H](Cc1ccccc1)NC(=O)[C@H](C(C)C)N1CCCNC1=O [Lopinavir, lopinavir] | – | – | 0.16 (0.11, 0.22) | 0.16 (0.08, 0.24) | 0.16 (0.04, 0.28) | – | 0.57 (0.46 0.68) | 0.32 (0.22, 0.42) | 1.60 (1.28, 1.92) | 0.78 (0.56, 1.00) | 0.38 (0.22, 0.55) | Additive- | – | 14 | – | – | – | – | – | additive to synergistic |
